{"source": "ChEMBL document CHEMBL5465560", "about": "“Selectivity Literature for EUbOPEN Chemogenomic Library” (2024)", "key": {"[1]": {"target": "T1, Cytoplasmic tyrosine-protein kinase BMX (Homo sapiens) (UniProt P51813)", "T1 sequence (whole entry)": "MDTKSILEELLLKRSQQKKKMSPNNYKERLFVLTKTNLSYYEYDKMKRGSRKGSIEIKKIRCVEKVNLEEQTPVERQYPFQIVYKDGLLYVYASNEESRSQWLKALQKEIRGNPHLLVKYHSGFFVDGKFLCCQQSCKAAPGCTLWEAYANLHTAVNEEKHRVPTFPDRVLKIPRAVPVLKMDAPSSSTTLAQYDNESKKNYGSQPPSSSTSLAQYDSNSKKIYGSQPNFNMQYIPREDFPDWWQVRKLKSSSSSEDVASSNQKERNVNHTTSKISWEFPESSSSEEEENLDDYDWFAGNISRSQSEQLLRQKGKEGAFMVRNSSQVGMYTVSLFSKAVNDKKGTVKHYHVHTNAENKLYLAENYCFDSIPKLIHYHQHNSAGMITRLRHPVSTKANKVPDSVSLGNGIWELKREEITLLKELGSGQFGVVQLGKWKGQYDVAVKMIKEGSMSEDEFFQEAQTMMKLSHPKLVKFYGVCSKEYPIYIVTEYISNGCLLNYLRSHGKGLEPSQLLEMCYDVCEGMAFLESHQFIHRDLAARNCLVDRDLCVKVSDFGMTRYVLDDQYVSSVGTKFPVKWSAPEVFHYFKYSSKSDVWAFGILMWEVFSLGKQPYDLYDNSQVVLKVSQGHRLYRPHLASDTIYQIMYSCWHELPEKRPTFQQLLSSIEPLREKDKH", "test": "Selectivity interaction (ProQinase) EUB0000171b BMX"}, "[2]": {"target": "T2, Tyrosine-protein kinase JAK3 (Homo sapiens) (UniProt P52333)", "T2 sequence (whole entry)": "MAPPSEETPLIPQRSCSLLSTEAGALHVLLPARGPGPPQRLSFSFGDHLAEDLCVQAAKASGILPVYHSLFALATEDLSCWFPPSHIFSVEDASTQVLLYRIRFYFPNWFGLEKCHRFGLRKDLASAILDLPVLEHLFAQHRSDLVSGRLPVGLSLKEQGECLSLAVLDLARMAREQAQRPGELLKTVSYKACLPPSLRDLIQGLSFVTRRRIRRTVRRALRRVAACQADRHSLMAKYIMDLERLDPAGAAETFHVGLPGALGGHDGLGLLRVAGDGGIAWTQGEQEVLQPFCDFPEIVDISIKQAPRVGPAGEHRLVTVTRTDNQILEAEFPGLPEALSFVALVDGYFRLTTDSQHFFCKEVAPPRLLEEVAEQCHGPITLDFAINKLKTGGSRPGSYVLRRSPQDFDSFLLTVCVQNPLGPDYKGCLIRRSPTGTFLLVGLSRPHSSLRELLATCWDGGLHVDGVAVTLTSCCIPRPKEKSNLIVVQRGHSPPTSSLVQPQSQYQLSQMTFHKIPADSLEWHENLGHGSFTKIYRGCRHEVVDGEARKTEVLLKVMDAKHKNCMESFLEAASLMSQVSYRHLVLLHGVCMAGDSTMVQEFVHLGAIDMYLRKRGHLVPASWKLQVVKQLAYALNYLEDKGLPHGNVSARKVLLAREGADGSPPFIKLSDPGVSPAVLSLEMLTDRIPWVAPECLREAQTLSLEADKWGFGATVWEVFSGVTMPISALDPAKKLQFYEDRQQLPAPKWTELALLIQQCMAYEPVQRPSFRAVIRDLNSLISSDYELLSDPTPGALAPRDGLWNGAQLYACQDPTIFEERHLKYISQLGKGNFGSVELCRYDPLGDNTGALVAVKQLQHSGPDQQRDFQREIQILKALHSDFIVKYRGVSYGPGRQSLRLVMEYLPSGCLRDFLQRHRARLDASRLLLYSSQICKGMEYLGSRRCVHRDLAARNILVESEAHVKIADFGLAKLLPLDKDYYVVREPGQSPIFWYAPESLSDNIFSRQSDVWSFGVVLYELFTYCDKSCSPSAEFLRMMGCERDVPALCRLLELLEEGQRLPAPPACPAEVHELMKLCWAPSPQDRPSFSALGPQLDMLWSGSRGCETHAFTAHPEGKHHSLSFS", "test": "Selectivity interaction (KinomeScan (DiscoverX)) EUB0000666a JAK3", "settings": "at 10 µM"}, "[3]": {"test_system": "Tyrosine-protein kinase ABL1 (Homo sapiens), P00519 [F317I]", "sequence (P00519 whole entry F317I)": "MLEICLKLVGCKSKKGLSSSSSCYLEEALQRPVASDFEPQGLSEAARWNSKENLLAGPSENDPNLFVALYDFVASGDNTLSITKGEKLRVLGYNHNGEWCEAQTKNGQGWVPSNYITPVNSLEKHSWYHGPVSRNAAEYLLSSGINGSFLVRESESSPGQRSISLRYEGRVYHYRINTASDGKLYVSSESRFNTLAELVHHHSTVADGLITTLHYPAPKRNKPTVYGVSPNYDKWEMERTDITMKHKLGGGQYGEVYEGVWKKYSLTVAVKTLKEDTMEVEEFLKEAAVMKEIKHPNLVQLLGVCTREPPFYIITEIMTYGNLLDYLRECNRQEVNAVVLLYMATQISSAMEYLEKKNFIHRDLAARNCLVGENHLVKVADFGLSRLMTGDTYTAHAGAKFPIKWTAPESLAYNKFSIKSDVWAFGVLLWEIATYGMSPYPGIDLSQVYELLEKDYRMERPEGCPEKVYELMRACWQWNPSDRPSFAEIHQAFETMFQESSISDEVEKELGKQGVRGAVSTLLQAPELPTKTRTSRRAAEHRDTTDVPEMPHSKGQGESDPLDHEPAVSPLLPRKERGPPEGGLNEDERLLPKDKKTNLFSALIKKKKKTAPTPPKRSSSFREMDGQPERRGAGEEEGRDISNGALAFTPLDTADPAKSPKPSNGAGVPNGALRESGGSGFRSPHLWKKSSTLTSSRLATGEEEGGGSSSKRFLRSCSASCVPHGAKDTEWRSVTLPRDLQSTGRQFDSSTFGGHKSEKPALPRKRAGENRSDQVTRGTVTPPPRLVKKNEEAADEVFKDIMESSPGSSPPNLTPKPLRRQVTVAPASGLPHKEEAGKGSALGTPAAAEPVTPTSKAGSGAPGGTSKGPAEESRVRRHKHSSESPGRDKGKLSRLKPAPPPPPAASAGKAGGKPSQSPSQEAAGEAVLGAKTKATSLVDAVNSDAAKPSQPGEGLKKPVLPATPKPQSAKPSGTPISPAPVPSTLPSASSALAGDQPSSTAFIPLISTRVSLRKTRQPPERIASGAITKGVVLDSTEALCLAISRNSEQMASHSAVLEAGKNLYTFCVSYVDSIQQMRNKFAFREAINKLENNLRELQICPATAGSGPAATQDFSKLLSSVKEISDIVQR", "settings": "at 10 µM"}, "[4]": {"target": "T3, Myosin light chain kinase (Homo sapiens) (UniProt Q32MK0)", "T3 sequence (whole entry)": "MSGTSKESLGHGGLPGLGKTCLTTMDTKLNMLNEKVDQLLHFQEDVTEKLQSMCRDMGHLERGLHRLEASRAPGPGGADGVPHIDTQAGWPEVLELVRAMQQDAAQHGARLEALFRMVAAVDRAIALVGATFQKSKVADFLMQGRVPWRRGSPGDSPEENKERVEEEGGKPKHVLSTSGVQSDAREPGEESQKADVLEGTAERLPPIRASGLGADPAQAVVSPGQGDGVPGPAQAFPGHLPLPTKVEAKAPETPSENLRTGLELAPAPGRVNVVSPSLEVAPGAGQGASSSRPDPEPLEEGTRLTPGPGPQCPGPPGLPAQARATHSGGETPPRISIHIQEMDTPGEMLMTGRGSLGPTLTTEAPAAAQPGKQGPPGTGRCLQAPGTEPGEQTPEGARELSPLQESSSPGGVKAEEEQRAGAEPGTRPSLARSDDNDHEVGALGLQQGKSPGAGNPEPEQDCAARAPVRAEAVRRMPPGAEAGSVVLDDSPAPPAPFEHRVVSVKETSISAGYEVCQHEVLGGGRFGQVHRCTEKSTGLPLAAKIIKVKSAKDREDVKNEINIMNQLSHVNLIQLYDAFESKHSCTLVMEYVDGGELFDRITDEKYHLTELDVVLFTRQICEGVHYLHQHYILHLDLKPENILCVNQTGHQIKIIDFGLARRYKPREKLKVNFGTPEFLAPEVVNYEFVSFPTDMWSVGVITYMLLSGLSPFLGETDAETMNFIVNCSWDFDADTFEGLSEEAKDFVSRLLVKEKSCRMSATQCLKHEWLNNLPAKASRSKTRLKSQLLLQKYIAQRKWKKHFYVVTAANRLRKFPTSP", "test": "Selectivity interaction (KinomeScan (DiscoverX)) EUB0000695a MYLK3", "settings": "at 100 nM"}, "[5]": {"target": "Calcium/calmodulin-dependent protein kinase type 1G (Homo sapiens) (UniProt Q96NX5)", "sequence (Q96NX5 whole entry)": "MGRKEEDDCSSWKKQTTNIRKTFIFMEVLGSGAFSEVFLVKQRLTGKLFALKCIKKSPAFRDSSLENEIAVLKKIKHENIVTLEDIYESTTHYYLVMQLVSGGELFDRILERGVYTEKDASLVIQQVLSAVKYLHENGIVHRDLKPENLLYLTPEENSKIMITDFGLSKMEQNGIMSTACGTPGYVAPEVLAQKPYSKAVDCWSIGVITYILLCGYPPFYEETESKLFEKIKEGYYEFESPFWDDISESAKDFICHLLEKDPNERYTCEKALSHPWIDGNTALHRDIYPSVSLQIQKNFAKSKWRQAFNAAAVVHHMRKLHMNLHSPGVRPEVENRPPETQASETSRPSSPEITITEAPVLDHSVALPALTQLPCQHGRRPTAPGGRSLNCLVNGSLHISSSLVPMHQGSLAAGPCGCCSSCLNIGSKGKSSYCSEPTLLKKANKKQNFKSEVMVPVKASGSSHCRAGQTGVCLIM", "test": "Selectivity interaction (KinomeScan (DiscoverX)) EUB0000618a CAMK1G", "settings": "at 10 µM"}, "Activated CDC42 kinase 1": {"target": "Activated CDC42 kinase 1 (Homo sapiens, UniProt Q07912)", "sequence (Q07912 whole entry, looked up)": "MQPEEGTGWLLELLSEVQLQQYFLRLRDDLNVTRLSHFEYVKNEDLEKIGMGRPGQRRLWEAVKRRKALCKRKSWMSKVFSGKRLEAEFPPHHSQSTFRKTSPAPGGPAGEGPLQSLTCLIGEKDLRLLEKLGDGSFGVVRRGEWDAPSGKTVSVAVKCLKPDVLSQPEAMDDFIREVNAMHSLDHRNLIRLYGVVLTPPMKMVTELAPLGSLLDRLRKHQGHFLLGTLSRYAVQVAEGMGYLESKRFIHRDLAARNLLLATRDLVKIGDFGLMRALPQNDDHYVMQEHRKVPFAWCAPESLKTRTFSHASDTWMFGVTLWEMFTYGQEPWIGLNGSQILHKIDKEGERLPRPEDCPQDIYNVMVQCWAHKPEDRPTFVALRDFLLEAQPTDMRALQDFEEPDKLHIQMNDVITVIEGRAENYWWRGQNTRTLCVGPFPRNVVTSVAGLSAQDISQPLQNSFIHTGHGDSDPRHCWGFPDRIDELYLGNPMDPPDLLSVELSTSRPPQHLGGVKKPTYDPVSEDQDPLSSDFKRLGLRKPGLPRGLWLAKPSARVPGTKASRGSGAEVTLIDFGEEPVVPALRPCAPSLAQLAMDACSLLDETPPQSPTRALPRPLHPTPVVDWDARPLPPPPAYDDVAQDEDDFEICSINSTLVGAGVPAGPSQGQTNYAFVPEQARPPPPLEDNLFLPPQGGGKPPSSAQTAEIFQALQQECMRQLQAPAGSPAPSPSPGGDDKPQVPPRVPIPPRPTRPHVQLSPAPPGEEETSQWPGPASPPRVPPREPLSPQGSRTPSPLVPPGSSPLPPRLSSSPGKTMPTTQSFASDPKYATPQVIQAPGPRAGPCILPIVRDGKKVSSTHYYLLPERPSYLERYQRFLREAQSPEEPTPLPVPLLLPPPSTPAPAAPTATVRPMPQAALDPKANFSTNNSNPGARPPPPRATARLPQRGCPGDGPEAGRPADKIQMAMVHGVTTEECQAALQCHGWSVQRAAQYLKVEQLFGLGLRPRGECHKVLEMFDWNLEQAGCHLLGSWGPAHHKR", "test": "Selectivity interaction (KinomeScan (DiscoverX)) EUB0000618a TNK2", "settings": "at 10 µM"}}}
{"molecule": "C=CC(=O)Nc1cccc(C(=O)Nc2ccc(Nc3cc(-c4[nH]c(SC)nc4C)ccn3)cc2)c1", "values": [{"measurement": "% of control", "setting": "[1]; at 1 µM", "result": 106, "unit": "%"}, {"measurement": "% of control", "setting": "[1]; at 5 µM", "result": 85, "unit": "%"}]}
{"molecule": "O=C(NOC[C@H](O)CO)c1ccc(F)c(F)c1Nc1ccc(I)cc1F", "values": [{"measurement": "% of control", "setting": "[2]", "result": 100, "unit": "%"}]}
{"molecule": "Cc1cc([C@@H](C)Nc2ccccc2C(=O)O)c2nc(N3CCOCC3)cc(=O)n2c1", "note": "[AZD-6482]", "values": [{"measurement": "% of control", "setting": "[3]", "result": 100, "unit": "%"}]}
{"molecule": "Cc1cc(F)c(C(=O)Nc2cccc(-c3nncn3C(C)C)n2)cc1-n1cnc(C2CC2)c1", "values": [{"measurement": "% of control", "setting": "[4]", "result": 100, "unit": "%"}]}
{"molecule": "O[C@H]1CC[C@H](Nc2ncc3nc(Nc4c(F)cc(F)cc4F)n([C@H]4CCOC4)c3n2)CC1", "values": [{"measurement": "% of control", "setting": "[5]", "result": 100, "unit": "%"}, {"measurement": "% of control", "setting": "Activated CDC42 kinase 1", "result": 100, "unit": "%"}]}
